We go through 1 compound from PubChem BioAssay (NCI).

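Protocol summary: plate cells (96-well), add compound at 5 concentrations, incubate 48 h, interpolate endpoints linearly. Here, GI50 denotes the concentration required for 50% inhibition of growth. The concentration for full growth arrest is given as TGI.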

Some test systems named below: HOP-18 NSCLC; KM20L2 colon; M19-MEL melanoma; MALME-3M melanoma; NCI-H226 lung; P388 leukemia; P388/ADR leukemia; SN12K1 renal.
Common to all, as to assay: NCI tumour cell line growth inhibition, 48 h

Consider `O=c1cc[nH]c(=O)[nH]1`, for which the TGI in the assay on HOP-18 NSCLC was greater than 1000 µM; in the assay on KM20L2 colon, greater than 1000 µM; in the assay on M19-MEL melanoma it was greater than 944 µM; with MALME-3M melanoma, greater than 1000 µM; with NCI-H226 lung, 990 µM; in the assay with P388 leukemia it was 447 µM. In addition, the TGI with P388/ADR leukemia worked out at 807 µM; in the assay with SN12K1 renal, 994 µM. In the assay with MALME-3M melanoma, the GI50 is greater than 851 µM.
